Reference: US20240300902A1, “NOVEL TRANSGLUTAMINASE 2 INHIBITOR AND USE THEREOF” (MD BIOLAB CO., LTD., priority 2021, published 2024)

Assays:
[1] = test system: ACHN cancer cell population; assay: Sulforhodamine B (SRB) assay; assay type: cell-based, Human
Experimental: Cells (10,000 cells/well, 100 μL) were incubated in a 96-well microtiter plate. After 24 hours of the incubation, drug (100 μL) was added to each of the wells, and the culture was further incubated at 37° C. for 48 hours. The cells were then fixed in TCA (50 μL per well). The plates were incubated at 4° C. for a minimum of 1 hour or a maximum of 3 hours. The liquid was removed from the plates, and then the plate was washed five times with water and then dried at room temperature (RT) for about 12-24 hours. The fixed cells were stained with 100 μL SRB for 5 minutes at room temperature. After the staining, the plate was washed three times with 1% (w/v) glacial acetic acid and dried at room temperature for about 12-24 hours. Next, the SRB was then dissolved in 10 mM Trizma base, and the absorbance was measured at 515 nm. The effect of the drug was expressed as GI50 (50% growth inhibition).
Specifically, each of the LDD3732, LDD3922, and LDD3959 in concentrations of 10^−9, 10^−8, 10^−7, 10^−6, and 10^−5 M were tested, and the percentage decrease in the control value of SRB was measured using an ACHN cancer cell population.

[2] = test system: ACHN cells; assay: Expression of cell proliferation inhibition-related and angiogenesis inhibition-related proteins, western blot; assay type: cell-based; settings: various concentrations, 48 hours
Experimental: LDD3959 treatment at various concentrations was performed on ACHN cells, using a serum-free culture medium, and a reaction was performed at 37° C. in the presence of 5% CO2 for 2 hours. The culture medium was replaced with a culture medium containing 10% FBS, and a reaction was performed for 48 hours. The culture medium was removed, and PBS washing was performed. With the use of a solution obtained by adding a protease inhibitor cocktail and a phosphatase inhibitor cocktail to RIPA buffer (25 mM Tris*HCl pH 7.6, 150 mM NaCl, 1% NP-40, 1% sodium deoxycholate, and 0.1% SDS) was used to prepare whole cell lysates.
The proteins were quantified by Bicinchoninic acid (BCA) protein assay. The proteins were resolved by SDS-PAGE and transcribed into a polyvinylidene difluoride (PVDF) membrane. The membrane was then blocked with 5% BSA for 1 hour at room temperature, allowed to react with a labeled antibody overnight at 4° C., washed in PBS-T for 30 minutes at room temperature, and allowed to react with a horseradish peroxidase (HRP)-bound secondary antibody for 2 hours at room temperature. Finally, the membrane was washed in PBS-T for […] at room temperature and developed with enhanced chemiluminescence.

[3] = test system: ACHN renal cancer cells; assay: Antitumor effect in in vivo renal cancerous tumors, ACHN xenograft, oral administration; parameters: species or system mice; settings: oral administration daily
Experimental: (§1) To examine the antitumor effect of LDD3959, CanN.Cg-Foxn1nu/CrljOri mice were used as experimental animals. The mice were xenografted with ACHN renal cancer cells or CAKI-1 renal cancer cells to induce tumors. The ACHN renal cancer cell-transplanted group was orally administered with LDD3959, and the CAKI-1-transplanted group was intraperitoneally administered with LDD3959. In this test, the oral administration was performed daily and the intraperitoneal administration was performed twice a week.

[4] = test system: p53; assay: P53 rescue test using western blotting; assay type: cell-based; settings: low to high concentration, cancer cell lines
Experimental: Whole cell lysates were prepared using a radioimmunoprecipitation assay (RIPA) buffer (150 mM sodium chloride, 1.0% (w/v) IGEPAL® CA-630 (NP-40), 0.5% (w/v) sodium deoxycholate, 0.1% (w/v) sodium dodecyl sulfate (SDS), a protease inhibitor cocktail, and 50 mM Tris-HCl (pH 8.0) containing a phosphatase inhibitor cocktail. Protein assays were performed through Bradford protein assay (Thermo Scientific, Waltham, MA, USA) to normalize protein expression. The proteins were resolved by SDS-PAGE and transferred to polyvinylidene difluoride (PVDF) membranes (Merck Millipore, Burlington, MA, USA). The membranes were blocked with 5% (w/v) BSA for 1 hour at room temperature and incubated overnight at 4° C. with labeled antibodies. Membranes were washed in TBS-T for 1 hour at room temperature and incubated together with a horseradish peroxidase (HRP)-bound secondary antibody for 1 hour at room temperature. Finally, the membranes were washed in TBS-T for 1 hour at room temperature and developed with enhanced chemiluminescence.

[5] = test system: a total of 8 tumors; assay: OncoPanel assay conducted by Eurofins; assay type: cell-based
Experimental: The OncoPanel™ assay conducted by Eurofins confirmed the antitumor efficacy of LDD3959 in a total of 8 tumors at concentrations of 10 μM or lower.

[6] = test system: MDA-MB231 cells; assay: Cell viability in breast cancer cell lines according to concentration; assay type: cell-based
Experimental: First breast cancer cells (MDA-MB-453, HCC-1806, HCC-1937: 10,000 cells/well, 100 μl) and second breast cancer cells (MDA-MB-231, MCF-7: 10,000 cells/well, 100 μl) were cultured in 96-well microplates.
After 24 hours, LDD3959 […] of various concentrations were added to each well, using a serum-free cell culture medium, and a reaction was allowed to proceed for 2 hours at 37° C. in the presence of 5% CO2. The culture medium was replaced with a culture medium containing 10% FSB, and a reaction was performed for 72 hours.
The existing culture medium was removed, and a new culture medium containing a water soluble tetrazolium salt was added. After that, the plate underwent a reaction at 37° C. in the presence of 5% CO2 for a duration in the range of 1 hour to 3 hours, and then absorbance was measured at 450 nm.

[7] = test system: MDA-MB231 breast cancer cells; assay: Antitumor effects in in vivo breast cancerous tumors, MDA-MB231 xenograft; parameters: species or system mice
Experimental: To examine the antitumor effect of LDD3959, CanN.Cg-Foxn1nu/CrljOri mice were used as experimental animals. The mice were xenografted with MDA-MB231 breast cancer cells to induce tumors. The MDA-MB231 breast cancer cell-transplanted group was divided into two groups: an oral administration group and an intraperitoneal administration group. In this test, the oral administration was performed daily and the intraperitoneal administration was performed twice a week.

[8] = test system: CAKI-1 renal cancer cells; assay: Antitumor effect in in vivo renal cancerous tumors, CAKI-1 xenograft, intraperitoneal administration; parameters: species or system mice
Experimental: as §1

## O=C1C(Cl)=C(Cl)C(=O)c2[nH]c(-c3ccc(Br)c(F)c3)nc21 [LDD3959, 2-(4-bromo-3-fluorophenyl)-5,6-dichloro-1H-benzo[d]imidazole-4,7-dione]
[1]; Homo sapiens, 48 hours, read-out: GI50 (50% growth inhibition)
  GI50: 2.5 µM
[1]; concentration of 10^−5 M, 48 hours
  SRB measurement (percentage decrease in the control value of SRB): −11.87
[1]; concentrations 10^−6 M or lower
  decrease in cell counts: no significant decrease in cell counts
[2]
  Akt/mTOR signals: inhibiting Akt/mTOR45 signals
  NFκB complexes: inhibiting NFκB complexes
[3]
  tumor growth inhibitory effect: concentration-dependent tumor growth inhibitory effects
[4]
  p53 rescue effect (Western blot band of p53): dose-dependent p53 rescue effects
[5]
  concentration with antitumor efficacy: ≤ 10 µM
[6]; MDA-MB231, highest expression level of transglutaminase 2, 72 hours
  effective concentration for apoptosis: the effective concentration was lowest, and the efficacy was best
[6]; breast cancer cell lines
  acting concentration compared with conventional transglutaminase 2 inhibitors: lower concentrations than conventional transglutaminase 2 inhibitors
[7]; intraperitoneal administration twice a week
  antitumor effect: concentration-dependent antitumor effects
[7]; oral administration daily
  antitumor effect: concentration-dependent antitumor effects
[8]; CAKI-1 xenograft, intraperitoneal administration twice a week
  tumor growth inhibitory effect: concentration-dependent tumor growth inhibitory effects
[8]; intraperitoneal administration group
  hematological examination: no abnormal findings
